In patent publication EP4410314A1, “COMBINATION THERAPY COMPRISING ANTI-CD22 ANTIBODY-DRUG CONJUGATE AND IRAK1 INHIBITOR” (ADC Therapeutics SA, priority 2023, dated 2024):

What was measured:
[1] = test system: KARPAS-299; test: DNA interstrand crosslinks, single cell gel electrophoresis (Comet) assay, KARPAS-299; format: cell-based, human; conditions: KARPAS-299 (CD22-negative), over 48 hours following a 2-hour treatment
Description: (§1) Quantification of in vitro DNA interstrand crosslinks (ICLs) was performed using the single cell gel electrophoresis (Comet) assay.
(§2) DNA ICLs were measured using a modification of the single-cell gel electrophoresis (Comet) assay, and crosslinking was expressed as the percentage decrease in Olive tail moment (OTM) versus control irradiated cells. […] Immediately after the drug incubation period, a low level of ICLs (3%) was observed, which increased over time to near peak levels (≈50%) at 12 hours and persisted up to 48 hours. […] In this cell line, SG3199 produced a high level of ICL (≈50%), similar to that observed in the Ramos cell line.

[2] = test system: NALM-6; test: In vitro cytotoxicity, NALM-6; format: cell-based, human; conditions: NALM-6 (B-ALL), CD22-positive; mean ± SEM
[3] = test system: Ramos; test: In vitro cytotoxicity, Ramos; format: cell-based, human; conditions: Ramos (BL), CD22-positive; mean ± SEM
[4] = test system: KARPAS-299; test: In vitro cytotoxicity, KARPAS-299; format: cell-based, human; conditions: KARPAS-299 (ALCL), CD22-negative; mean ± SEM
[5] = test system: Daudi; test: In vitro cytotoxicity, Daudi; format: cell-based, human; conditions: Daudi (BL), CD22-positive; mean ± SEM
[6] = test system: NAMALWA; test: In vitro cytotoxicity, NAMALWA; format: cell-based, human; conditions: NAMALWA (BL), CD22-positive; mean ± SEM
[7] = test system: MEC-2; test: In vitro cytotoxicity, MEC-2; format: cell-based, human; conditions: MEC-2 (CLL), CD22-positive; mean ± SEM
[8] = test system: KM-H2; test: In vitro cytotoxicity, KM-H2; format: cell-based, human; conditions: KM-H2 (HL), CD22-negative; mean ± SEM
[9] = test system: SUP-T1; test: In vitro cytotoxicity, SUP-T1; format: cell-based, human; conditions: SUP-T1 (T-LL), CD22-negative; mean ± SEM
[10] = test system: Ramos cells; test: DNA interstrand crosslinks, single cell gel electrophoresis (Comet) assay, Ramos; format: cell-based, human
Description: as §1, §2

[11] = test system: GRANTA-519; test: In vitro cytotoxicity, GRANTA-519; format: cell-based, human; conditions: GRANTA-519 (MCL), CD22-positive; mean ± SEM
[12] = test system: SEM cells; test: In vitro cytotoxicity, SEM; format: cell-based, human; conditions: SEM (B-ALL), CD22-positive; mean ± SEM
[13] = test system: REH; test: In vitro cytotoxicity, REH; format: cell-based, human; conditions: REH (B-ALL), CD22-positive; mean ± SEM
[14] = test system: DO HH-2; test: In vitro cytotoxicity, DO HH-2; format: cell-based, human; conditions: DO HH-2 (FL), CD22-positive; mean ± SEM
[15] = test system: CD22; test: CD22 cell surface expression after chidamide treatment, flow cytometry; format: cell-based; conditions: chidamide 0.25 or 0.5 µM for 7 days; Ramos, TMD8, and SU-DHL-4 cell lines
Description: Chidamide (Selleckchem) was dissolved in dimethyl sulfoxide (DMSO) according to the manufacturer's instructions. Cells were treated with chidamide (0.25 or 0.5 µM) for 7 days at 37°C in a 5% carbon dioxide-gassed, humidified incubator. On day 3, cells were centrifuged, and fresh medium containing the corresponding concentrations of chidamide was added. The control group was treated with equal volumes of DMSO.
CD22 cell surface expression after chidamide treatment was measured by flow cytometry. hLL2-C220 and B12 antibodies, followed by Alexa Fluor 488 anti-human secondary antibodies (Life Technologies, Thermo Fisher Scientific) or allophycocyanin anti-human secondary antibodies (BioLegend), were used for CD22 detection. Cells were analyzed using a CytoFLEX Flow Cytometer (Beckman Coulter), and data were analyzed with FlowJo software version 10.8.1 (BD Biosciences).

| SMILES | DNA ICLs, percentage decrease in Olive tail moment (OTM) versus control irradiated cells [1] | IC50 [2] [nM] | IC50 [3] [nM] | IC50 [4] [nM] | IC50 [5] [nM] | IC50 [6] [nM] | IC50 [7] [nM] | IC50 [8] [nM] | IC50 [9] [nM] | DNA ICLs, percentage decrease in Olive tail moment (OTM) versus control irradiated cells ([10]; 2-hour exposure, immediately after the drug incubation period) [%] | DNA ICLs, percentage decrease in Olive tail moment (OTM) versus control irradiated cells ([10]; after 2 hours following drug incubation) [%] | persistence of DNA ICLs ([10]; following 2-hour exposure) | IC50 [11] [nM] | IC50 [12] [nM] | IC50 [13] [nM] | IC50 [14] [nM] | increase of CD22 expression compared with DMSO-treated cells (MFI fold change) [15] |
| --- | --- | --- | --- | --- | --- | --- | --- | --- | --- | --- | --- | --- | --- | --- | --- | --- | --- |
| COc1cc2c(cc1OCCCCCOc1cc3c(cc1OC)C(=O)N1C=C(C)C[C@H]1C=N3)N=C[C@@H]1CC(C)=CN1C2=O [SG3199] | ≈ 50% | 0.002 | 0.016 ± 0.001 | 0.025 ± 0.001 | 0.008 ± 0.001 | 0.014 ± 0.001 | 0.033 ± 0.009 | 0.036 ± 0.005 | 0.026 ± 0.005 | 46 | 56 | up to 48 hours | 0.002 | 0.005 ± 0.002 | 0.001 | 0.007 ± 0.001 | – |
| Nc1cc(F)ccc1NC(=O)c1ccc(CNC(=O)/C=C/c2cccnc2)cc1 [chidamide] | – | – | – | – | – | – | – | – | – | – | – | – | – | – | – | – | up to 2.4 times |
